According to PubChem BioAssay (NCI):
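Cultured in 96-well plates, cells were exposed to test compound for 48 hours across five concentrations. At the TGI there is no net growth.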

Assays:
Test in all cases: NCI tumour cell line growth inhibition, 48 h
DLD-1 colon = system: DLD-1 colon
DMS 273 small cell lung = system: DMS 273 small cell lung
KM20L2 colon = system: KM20L2 colon
M19-MEL melanoma = system: M19-MEL melanoma
RXF-631 renal = system: RXF-631 renal
SNB-78 CNS = system: SNB-78 CNS
XF 498 CNS = system: XF 498 CNS
HOP-18 NSCLC = system: HOP-18 NSCLC
LXFL 529 NSCLC = system: LXFL 529 NSCLC
P388/ADR leukemia = system: P388/ADR leukemia
SN12K1 renal = system: SN12K1 renal

SMILES | TGI (DLD-1 colon) | TGI (DMS 273 small cell lung) | TGI (KM20L2 colon) | TGI (M19-MEL melanoma) | TGI (RXF-631 renal) | TGI (SNB-78 CNS) | TGI (XF 498 CNS) | TGI (HOP-18 NSCLC) | TGI (LXFL 529 NSCLC) | TGI (P388/ADR leukemia) | TGI (SN12K1 renal)
N=C(N)SCc1cccc2c(=O)cc(-c3ccccc3)oc12 | 48.5 µM | 27.7 µM | 45.6 µM | 49.9 µM | 28.5 µM | 31.7 µM | 28.4 µM | – | – | – | –
CCOC(=O)C1=C(C)N(NC(N)=O)C2(O)CCCC(=O)C12C (stereo not given) | > 100 µM | > 100 µM | > 100 µM | – | > 100 µM | > 100 µM | > 100 µM | > 100 µM | > 100 µM | – | –
CCCCS(=O)(=O)Nc1ccc(Nc2c3ccccc3nc3ccccc23)c(OC)c1 | 24.4 µM | 3.37 µM | 11.9 µM | 19.6 µM | – | 18.9 µM | 10.5 µM | 19.8 µM | – | 2.88 µM | 3.55 µM
O=C(O)C12CCCC(CCC1)C2 | > 100 µM | > 100 µM | – | – | > 100 µM | > 100 µM | > 100 µM | – | > 100 µM | – | –
